Measured values published in patent US20240140986A1, “SYNTHETIC URSOLIC ACID DERIVATIVES AND METHODS OF USE THEREOF” (REATA PHARMACEUTICALS, INC., priority 2021, published 2024).
Where two headings read alike, the source gives them in different places.

Columns and labels:
[1] = test system: IFNγ-induced NO production in RAW 264.7 cells; assay: Nitric Oxide Suppression Assay (IFNγ-induced NO, Griess nitrite readout); format: cell-based, mouse; settings: for IC50: Mus musculus; for Avg NO IC50 Relative to RTA402 (fold): Table 2, ratio to RTA402
Protocol: Tissue Culture: RAW 264.7, a mouse macrophage cell line, was obtained from American Type Culture Collection (Manassas VA) and maintained in the log phase of growth in Roswell Park Memorial Institute Medium 1640 (RPMI 1640) supplemented with 10% heat inactivated fetal bovine serum and 1% penicillin-streptomycin. Cells were cultured and maintained in a humidified incubator at 37° C. under 5% C02. Cells were sub-cultured every 2-4 days. All cell culture supplies were obtained from Life Technologies (Grand Island, NY) and VWR (Radnor, PA).
Nitric Oxide Suppression Assay. RAW 264.7 cells were plated 1 day in advance of experimental treatments at a concentration of 30,000 cells per well onto Falcon-96 well clear bottom plates (Corning, NY) in a total volume of 200 μL per well using RPMI 1640 supplemented with 0.5% fetal bovine serum and 1% penicillin-streptomycin. The next day, cells were pretreated with compounds serially diluted from 1000×stocks. All compounds were dissolved in dimethyl sulfoxide (DMSO) usually at 10 mM stock solutions. Compounds were subsequently diluted in DMSO and RPMI 1640. Each well received a final concentration of 0.1% DMSO. Cells were pretreated for 2 hours and incubation at 37° C., followed by treatment with 20 ng/mL of interferon gamma (R&D Systems, Minneapolis, MN) per well for 24 hours. The next day, a nitrite standard was serially diluted from 100 μM to 1.6 μM in RPMI 1640. Afterwards, 50 μL of cell culture supernatant was transferred from each well into a new Falcon-96 well clear bottom plate. Nitrite was measured as surrogate for nitric oxide using Promega's Griess Detection Kit #G2930 (Madison, WI) which involves the addition of 50 μL of the provided sulfanilamide solution to each well of the transferred cell culture supernatant and standards, followed by a 10-minute incubation at room temperature. Next, 50 μL of the provided N-1-napthylethylenediamine dihydrochloride (NED) solution was added to the sulfanilamide reaction and incubated for 10 minutes at room temperature in the dark. Afterwards, air bubbles were removed using ethanol vapor and absorbance was measured using a Spectramax M2e plate reader with a wavelength set to 525 nm. Viability was assessed using WST-1 cell proliferation reagent from Roche (Basel, Switzerland). After media was removed for the Nitric Oxide suppression assay, 15 μL of WST-1 reagent was added to each well of cells. Plates were briefly mixed on an orbital shaker and the cells were incubated at 37° C. for 30-90 minutes. Absorbance was measured using a Spectramax M2e plate reader with wavelengths set to 440 nm and 700 nm.
For the ability of compounds to suppress the increase in nitric oxide release caused by interferon gamma, the absolute amount of nitrite that was produced in each well was extrapolated from the nitrite standards using a linear regression fit. All values were then normalized to the DMSO-interferon gamma treated wells and plotted as percent nitric oxide. IC50 values were calculated using Excel and/or GraphPad Prism (San Diego, CA).

[2] = test system: Nrf2 / ARE-dependent luciferase in AREc32 reporter cell line; assay: AREc32 luciferase reporter activation (Nrf2 induction); format: cell-based, human; settings: for EC (2-fold): Homo sapiens, Arec32; for Relative Avg AREc32 EC2X Relative to RTA402 (fold): ratio to RTA402
Protocol: Effect on Ludferase Reporter Activation. Nrf2 is a transcription factor that binds to the antioxidant response element (ARE) sequence in the promoter regions of its target genes. AREc32 reporter cell line (derived from human breast carcinoma MCF7 cells) was obtained was from CXR Bioscience Limited (Dundee, UK) and cultured in DMEM (low glucose) supplemented with 10% FBS, 1% penicillin/streptomycin, and 0.8 mg/ml Geneticin (G418). This cell line is stably transfected with a luciferase reporter gene under the transcriptional control of eight copies of the rat GSTA2 ARE sequence (5′-GTGACAAAGCA-3′) (Wang et al., 2006). Expression of Firefly luciferase from this reporter plasmid is controlled by binding of Nrf2 to these ARE sequences. Measurement of ARE-dependent luciferase activity allows quantitative assessment of Nrf2 induction. AREc32 cell line has previously been used in studies characterizing different Nrf2 activators (Dinkova-Kostova & Wang, 2011; Roubalová et al., 2016; Roubalová et al, 2017; Wu et al, 2012).
The effect of several compounds disclosed herein on luciferase reporter activation was assessed in the AREc32 reporter cell line (see Table 10 and Table 11). This cell line is derived from human breast carcinoma MCF-7 cells and is stably transfected with a luciferase reporter gene under the transcriptional control of eight copies of the antioxidant response element from the rat Gsta2 gene, an Nrf2 target gene (Frilling et al., 1990). AREc32 cells were plated in black 96-well plates in 200 μL media at 20,000 cells per well. Twenty-four hours after plating, cells were treated with vehicle (DMSO) or test compounds at concentrations ranging from 0.03 to 1000 nM for nineteen hours. Media was removed and 100 μL of 1:1 mixture of the One-Glo Luciferase assay reagent and culture medium was added to each well. After incubation for 5 min at room temperature, the luminescence signal was measured on a PHERAstar plate reader. The EC2X value was determined using Excel and GraphPad Prism software. The fold increase in luminescence signal for cells treated with each concentration of compound relative to cells treated with vehicle was determined and a dose-response curve was generated. The dose-response curve was fit using nonlinear regression analysis and used to extrapolate the EC2X value. The EC2X value is defined as the concentration of test compound required to increase the luminescence signal 2-fold above levels in vehicle-treated samples.

[3] = RAW264.7, Table 2, RAW 264.7 cells, 2 h pretreatment, 20 ng/mL interferon gamma 24 h, read-out: Avg NO IC50 (nM) (Mean ± SD)
[4] = Table 2, concentration increasing luminescence 2-fold above vehicle, 19 h treatment, read-out: Avg AREc32 EC2X (nM) (Mean ± SD)
[5] = RAW264.7, Table 3, ursolic acid derivatives, read-out: Avg NO IC50 (nM) (Mean ± SD)
[6] = Table 3, ursolic acid derivatives, read-out: Avg ARE EC-2X (nM) (Mean ± SD)
[7] = RAW264.7, Table 3, oleanolic acid derivative analogs, read-out: Avg NO IC50
[8] = Table 3, oleanolic acid derivative analogs, read-out: Avg ARE EC-2X

C[C@@H]1[C@H]2[C@H]3C(=O)C=C4[C@@]5(C)C=C(C#N)C(=O)C(C)(C)[C@@H]5CC[C@@]4(C)[C@]3(C)CC[C@@]2(CN(C)C(=O)C(F)F)CC[C@H]1C [Compound T39]
IC50 [1, 3]: 10.4 ± 2.6 nM | Avg NO IC50 Relative to RTA402 (fold) [1]: 3.38 ± 0.68 fold | EC (2-fold) [2, 4]: 9.58 ± 2.31 nM | Relative Avg AREc32 EC2X Relative to RTA402 (fold) ([2]; Table 2): 0.799 ± 0.095 fold

C[C@@H]1[C@H]2[C@H]3C(=O)C=C4[C@@]5(C)C=C(C#N)C(=O)C(C)(C)[C@@H]5CC[C@@]4(C)[C@]3(C)CC[C@@]2(CNS(=O)(=O)C2CC2)CC[C@H]1C [Compound T33]
IC50 [1, 3]: 6.84 ± 1.59 nM | Avg NO IC50 Relative to RTA402 (fold) [1]: 2.32 ± 0.42 fold | EC (2-fold) [2, 4]: 6.93 ± 1 nM | Relative Avg AREc32 EC2X Relative to RTA402 (fold) ([2]; Table 2): 0.621 ± 0.137 fold

C[C@@H]1[C@H]2[C@H]3C(=O)C=C4[C@@]5(C)C=C(C#N)C(=O)C(C)(C)[C@@H]5CC[C@@]4(C)[C@]3(C)CC[C@@]2(CCC(=O)O)CC[C@H]1C [Compound T77]
IC50 [1, 3]: 8.75 ± 4.81 nM | Avg NO IC50 Relative to RTA402 (fold) [1]: 2.31 ± 0.20 fold | EC (2-fold) [2, 4]: 3.16 ± 1.11 nM | Relative Avg AREc32 EC2X Relative to RTA402 (fold) ([2]; Table 2): 0.263 ± 0.085 fold

C[C@@H]1[C@H]2[C@H]3C(=O)C=C4[C@@]5(C)C=C(C#N)C(=O)C(C)(C)[C@@H]5CC[C@@]4(C)[C@]3(C)CC[C@@]2(N)CC[C@H]1C [Compound T16]
IC50 [1, 3]: 15 ± 3.7 nM | IC50 [1, 5]: 15 ± 3.7 nM | Avg NO IC50 Relative to RTA402 (fold) [1]: 7.63 ± 2.99 fold | EC (2-fold) [2, 4]: 20.5 ± 6 nM | EC (2-fold) [2, 6]: 20.5 ± 6 nM | Relative Avg AREc32 EC2X Relative to RTA402 (fold) ([2]; Table 2): 1.61 ± 0.084 fold

C[C@@H]1[C@H]2[C@H]3C(=O)C=C4[C@@]5(C)C=C(C#N)C(=O)C(C)(C)[C@@H]5CC[C@@]4(C)[C@]3(C)CC[C@@]2(c2nc(C3CC3)no2)CC[C@H]1C [Compound T2]
IC50 [1, 3]: 21.3 ± 7.4 nM | IC50 [1, 5]: 21.3 ± 7.4 nM | Avg NO IC50 Relative to RTA402 (fold) [1]: 9.86 ± 0.83 fold | EC (2-fold) [2, 4]: 35 ± 2 nM | EC (2-fold) [2, 6]: 35 ± 2 nM | Relative Avg AREc32 EC2X Relative to RTA402 (fold) ([2]; Table 2): 3.41 ± 0.20 fold

C[C@@H]1[C@H]2[C@H]3C(=O)C=C4[C@@]5(C)C=C(C#N)C(=O)C(C)(C)[C@@H]5CC[C@@]4(C)[C@]3(C)CC[C@@]2(CNS(C)(=O)=O)CC[C@H]1C [Compound T31]
IC50 [1, 3]: 7.7 ± 3.1 nM | Avg NO IC50 Relative to RTA402 (fold) [1]: 2.25 ± 0.49 fold | EC (2-fold) [2, 4]: 4.36 ± 0.81 nM | Relative Avg AREc32 EC2X Relative to RTA402 (fold) ([2]; Table 2): 0.373 ± 0.071 fold

CO/N=C/[C@]12CC[C@@H](C)[C@H](C)[C@H]1[C@H]1C(=O)C=C3[C@@]4(C)C=C(C#N)C(=O)C(C)(C)[C@@H]4CC[C@@]3(C)[C@]1(C)CC2 [Compound T57]
IC50 [1, 3]: 20.1 ± 6 nM | Avg NO IC50 Relative to RTA402 (fold) [1]: 8.81 ± 0.63 fold | EC (2-fold) [2, 4]: 34.1 ± 4.98 nM | Relative Avg AREc32 EC2X Relative to RTA402 (fold) ([2]; Table 2): 2.73 ± 0.34 fold

C[C@H]1[C@H](C)CCC23CC[C@@]4(C)[C@]5(C)CC[C@H]6C(C)(C)C(=O)C(C#N)=C[C@]6(C)C5=CC(=O)[C@]4(OC2)[C@H]13 [Compound T12]
IC50 [1, 3]: 6.75 ± 2.19 nM | Avg NO IC50 Relative to RTA402 (fold) [1]: 3.29 ± 0.81 fold | EC (2-fold) [2, 4]: 9.2 ± 2.7 nM | Relative Avg AREc32 EC2X Relative to RTA402 (fold) ([2]; Table 2): 0.724 ± 0.074 fold

C[C@@H]1[C@H]2[C@H]3C(=O)C=C4[C@@]5(C)C=C(C#N)C(=O)C(C)(C)[C@@H]5CC[C@@]4(C)[C@]3(C)CC[C@@]2(CN2CCN(C)C2=O)CC[C@H]1C [Compound T44]
IC50 [1, 3]: 5.53 ± 1.8 nM | IC50 [1, 5]: 5.5 ± 1.8 nM | Avg NO IC50 Relative to RTA402 (fold) [1]: 2.03 ± 0.67 fold | EC (2-fold) [2, 4]: 5.73 ± 1.79 nM | EC (2-fold) [2, 6]: 5.73 ± 1.79 nM | Relative Avg AREc32 EC2X Relative to RTA402 (fold) ([2]; Table 2): 0.53 ± 0.13 fold

CNC(=O)NC[C@]12CCC(C)(C)C[C@H]1[C@H]1C(=O)C=C3[C@@]4(C)C=C(C#N)C(=O)C(C)(C)[C@@H]4CC[C@@]3(C)[C@]1(C)CC2 [CC26, reference compound]
IC50 [1, 7]: 0.5 nM | EC (2-fold) [2, 8]: 2.75 nM

CC1(C)CC[C@]2(CN3CCC3=O)CC[C@]3(C)[C@H](C(=O)C=C4[C@@]5(C)C=C(C#N)C(=O)C(C)(C)[C@@H]5CC[C@]43C)[C@@H]2C1 [CC14, reference compound]
IC50 [1, 7]: 1.1 nM | EC (2-fold) [2, 8]: 5.24 nM

CC1(C)CC[C@]2(c3nc(C4CC4)no3)CC[C@]3(C)[C@H](C(=O)C=C4[C@@]5(C)C=C(C#N)C(=O)C(C)(C)[C@@H]5CC[C@]43C)[C@@H]2C1 [CC2, reference compound]
EC (2-fold) [2, 8]: 43.7 nM

Cc1cn(C[C@]23CCC(C)(C)C[C@H]2[C@H]2C(=O)C=C4[C@@]5(C)C=C(C#N)C(=O)C(C)(C)[C@@H]5CC[C@@]4(C)[C@]2(C)CC3)nn1 [CC49, reference compound]
EC (2-fold) [2, 8]: 13.8 nM

CC1(C)CC[C@]2(CN3CCC3)CC[C@]3(C)[C@H](C(=O)C=C4[C@@]5(C)C=C(C#N)C(=O)C(C)(C)[C@@H]5CC[C@]43C)[C@@H]2C1 [CC55, reference compound]
EC (2-fold) [2, 8]: 22 nM

CNC(=O)N(C)C[C@]12CCC(C)(C)C[C@H]1[C@H]1C(=O)C=C3[C@@]4(C)C=C(C#N)C(=O)C(C)(C)[C@@H]4CC[C@@]3(C)[C@]1(C)CC2 [CC36, reference compound]
EC (2-fold) [2, 8]: 7.23 nM

CC1(C)CC[C@]2(N3CCCC3=O)CC[C@]3(C)[C@H](C(=O)C=C4[C@@]5(C)C=C(C#N)C(=O)C(C)(C)[C@@H]5CC[C@]43C)[C@@H]2C1 [CC58, reference compound]
EC (2-fold) [2, 8]: 37.9 nM
